Read-outs that look alike come from different tables or passages of the source.
Biological target: T1, Human BCL-XL protein (N-terminal HiBiT tagged BCL-XL in HT1080 cells) (Homo sapiens, UniProt Q07817)
T1 construct: expressed in transfected cells; host or cells: HT-1080 (ATCC CCL-121), stably transduced with lentivirus pLV-UBC-N-HiBiT-BCL-XL-PGK-puro and selected with puromycin
Test: HiBiT based degradation assay
Type: cell-based
Details: HT1080 cells expressing HiBiT-BCL-XL; for Ymin (6 h) / Ymin (24 h): BCL-XL degradation normalized with DMSO control; for DC50: BCL-XL degradation
Summary of the method: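 HT1080 cells stably transduced by lentivirus with N-terminally HiBiT-tagged human BCL-XL and kept under 1 μg/mL puromycin selection were seeded at three thousand cells per well in 40 μL RPMI 1640 into 384-well plates pre-spotted with compounds across a concentration range. Luminescence was read on a PHERAstar FSX, normalized to DMSO, and fitted with a four-parameter logistic model.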

T1 sequence (Q07817 whole entry): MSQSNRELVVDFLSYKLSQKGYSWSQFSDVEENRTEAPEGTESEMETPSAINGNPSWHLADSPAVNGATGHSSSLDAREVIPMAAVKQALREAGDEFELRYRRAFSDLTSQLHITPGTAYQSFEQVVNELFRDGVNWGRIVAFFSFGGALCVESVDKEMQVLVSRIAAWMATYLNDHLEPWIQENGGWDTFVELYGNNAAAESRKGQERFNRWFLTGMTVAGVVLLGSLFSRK

SMILES | Ymin (6 h) | Ymin (24 h) | DC50 (6 h, read-out: EC50 (6 h)) | DC50 (24 h, read-out: EC50 (24 h))
Cc1c(OCCN2CCN(CC(=O)N3CCN(c4ccc5c(C6CCC(=O)NC6=O)nn(C)c5c4)CC3)CC2)cccc1-c1ccc(N2CCc3cccc(C(=O)Nc4nc5ccccc5s4)c3C2)nc1C(=O)O (centres unmarked) [Compound 141, 6-(8-(benzo[d]thiazol-2-ylcarbamoyl)-3,4-dihydroisoquinolin-2(1H)-yl)-3-(3-(2-(4-(2-(4-(3-(2,6-dioxopiperidin-3-yl)-1-methyl-1H-indazol-6-yl)piperazin-1-yl)-2-oxoethyl)piperazin-1-yl)ethoxy)-2-methylphenyl)picolinic acid] | B (50% ≤ Ymin < 70%) | A (Ymin < 50%) | < 100 nM | < 100 nM
Cc1c(OCCCC2CCN(CC(=O)N3CCN(c4ccc5c(C6CCC(=O)NC6=O)nn(C)c5c4)CC3)CC2)cccc1-c1ccc(N2CCc3cccc(C(=O)Nc4nc5ccccc5s4)c3C2)nc1C(=O)O (centres unmarked) [Compound 142, 6-(8-(benzo[d]thiazol-2-ylcarbamoyl)-3,4-dihydroisoquinolin-2(1H)-yl)-3-(3-(3-(1-(2-(4-(3-(2,6-dioxopiperidin-3-yl)-1-methyl-1H-indazol-6-yl)piperazin-1-yl)-2-oxoethyl)piperidin-4-yl)propoxy)-2-methylphenyl)picolinic acid] | A (Ymin < 50%) | A (Ymin < 50%) | < 100 nM | < 100 nM
Cc1c(OCCC2CCN(CC(=O)N3CCN(c4ccc5c(C6CCC(=O)NC6=O)nn(C)c5c4)CC3)CC2)cccc1-c1ccc(N2CCc3cccc(C(=O)Nc4nc5ccccc5s4)c3C2)nc1C(=O)O (centres unmarked) [Compound 143, 6-(8-(benzo[d]thiazol-2-ylcarbamoyl)-3,4-dihydroisoquinolin-2(1H)-yl)-3-(3-(2-(1-(2-(4-(3-(2,6-dioxopiperidin-3-yl)-1-methyl-1H-indazol-6-yl)piperazin-1-yl)-2-oxoethyl)piperidin-4-yl)ethoxy)-2-methylphenyl)picolinic acid] | A (Ymin < 50%) | A (Ymin < 50%) | < 100 nM | < 100 nM
Cc1c(OCCCC2CCN(CC(=O)N3CCN(c4cccc5c(C6CCC(=O)NC6=O)nn(C)c45)CC3)CC2)cccc1-c1ccc(N2CCc3cccc(C(=O)Nc4nc5ccccc5s4)c3C2)nc1C(=O)O (centres unmarked) [Compound 144, 6-[8-(1,3-benzothiazol-2-ylcarbamoyl)-3,4-dihydro-1H-isoquinolin-2-yl]-3-[3-[3-[1-[2-[4-[3-(2,6-dioxo-3-piperidyl)-1-methyl-indazol-7-yl]piperazin-1-yl]-2-oxo-ethyl]-4-piperidyl]propoxy]-2-methyl-phenyl]pyridine-2-carboxylic acid] | A (Ymin < 50%) | A (Ymin < 50%) | < 100 nM | < 100 nM
Cc1c(OCCC2CCN(CC(=O)N3CCN(c4cccc5c(C6CCC(=O)NC6=O)nn(C)c45)CC3)CC2)cccc1-c1ccc(N2CCc3cccc(C(=O)Nc4nc5ccccc5s4)c3C2)nc1C(=O)O (centres unmarked) [Compound 145, 6-(8-(benzo[d]thiazol-2-ylcarbamoyl)-3,4-dihydroisoquinolin-2(1H)-yl)-3-(3-(2-(1-(2-(4-(3-(2,6-dioxopiperidin-3-yl)-1-methyl-1H-indazol-7-yl)piperazin-1-yl)-2-oxoethyl)piperidin-4-yl)ethoxy)-2-methylphenyl)picolinic acid] | B (50% ≤ Ymin < 70%) | A (Ymin < 50%) | < 100 nM | < 100 nM
Cc1c(O[C@H]2CC[C@H](CCC(=O)N3CCN(c4cccc5c(C6CCC(=O)NC6=O)nn(C)c45)CC3)CC2)cccc1-c1ccc(N2CCc3cccc(C(=O)Nc4nc5ccccc5s4)c3C2)nc1C(=O)O (some centres unmarked) [Compound 146a, 6-(8-(benzo[d]thiazol-2-ylcarbamoyl)-3,4-dihydroisoquinolin-2(1H)-yl)-3-(3-(((1r,4r)-4-(3-(4-(3-(2,6-dioxopiperidin-3-yl)-1-methyl-1H-indazol-7-yl)piperazin-1-yl)-3-oxopropyl)cyclohexyl)oxy)-2-methylphenyl)picolinic acid] | A (Ymin < 50%) | A (Ymin < 50%) | 100 to 1000 nM | < 100 nM
Cc1c(O[C@H]2CC[C@@H](CCC(=O)N3CCN(c4cccc5c(C6CCC(=O)NC6=O)nn(C)c45)CC3)CC2)cccc1-c1ccc(N2CCc3cccc(C(=O)Nc4nc5ccccc5s4)c3C2)nc1C(=O)O (some centres unmarked) [Compound 146b, 6-(8-(benzo[d]thiazol-2-ylcarbamoyl)-3,4-dihydroisoquinolin-2(1H)-yl)-3-(3-(((1s,4s)-4-(3-(4-(3-(2,6-dioxopiperidin-3-yl)-1-methyl-1H-indazol-7-yl)piperazin-1-yl)-3-oxopropyl)cyclohexyl)oxy)-2-methylphenyl)picolinic acid] |  | B (50% ≤ Ymin < 70%) |  | 100 to 1000 nM
Cc1c(O[C@H]2CC[C@H](CCCN3CCN(c4cccc5c(C6CCC(=O)NC6=O)nn(C)c45)CC3)CC2)cccc1-c1ccc(N2CCc3cccc(C(=O)Nc4nc5ccccc5s4)c3C2)nc1C(=O)O (some centres unmarked) [Compound 147a, 6-(8-(benzo[d]thiazol-2-ylcarbamoyl)-3,4-dihydroisoquinolin-2(1H)-yl)-3-(3-(((1s,4r)-4-(3-(4-(3-(2,6-dioxopiperidin-3-yl)-1-methyl-1H-indazol-7-yl)piperazin-1-yl)propyl)cyclohexyl)oxy)-2-methylphenyl)picolinic acid] | B (50% ≤ Ymin < 70%) | A (Ymin < 50%) | < 100 nM | < 100 nM
Cc1c(O[C@H]2CC[C@@H](CCCN3CCN(c4cccc5c(C6CCC(=O)NC6=O)nn(C)c45)CC3)CC2)cccc1-c1ccc(N2CCc3cccc(C(=O)Nc4nc5ccccc5s4)c3C2)nc1C(=O)O (some centres unmarked) [Compound 147b, 6-(8-(benzo[d]thiazol-2-ylcarbamoyl)-3,4-dihydroisoquinolin-2(1H)-yl)-3-(3-(((1r,4s)-4-(3-(4-(3-(2,6-dioxopiperidin-3-yl)-1-methyl-1H-indazol-7-yl)piperazin-1-yl)propyl)cyclohexyl)oxy)-2-methylphenyl)picolinic acid] |  | B (50% ≤ Ymin < 70%) |  | < 100 nM
Cc1c(O[C@H]2CC[C@H](CCCN3CCN(c4ccc5c(C6CCC(=O)NC6=O)nn(C)c5c4)CC3)CC2)cccc1-c1ccc(N2CCc3cccc(C(=O)Nc4nc5ccccc5s4)c3C2)nc1C(=O)O (some centres unmarked) [Compound 148a, 6-(8-(benzo[d]thiazol-2-ylcarbamoyl)-3,4-dihydroisoquinolin-2(1H)-yl)-3-(3-(((1s,4r)-4-(3-(4-(3-(2,6-dioxopiperidin-3-yl)-1-methyl-1H-indazol-6-yl)piperazin-1-yl)propyl)cyclohexyl)oxy)-2-methylphenyl)picolinic acid] | B (50% ≤ Ymin < 70%) | A (Ymin < 50%) | < 100 nM | < 100 nM
Cc1c(O[C@H]2CC[C@@H](CCCN3CCN(c4ccc5c(C6CCC(=O)NC6=O)nn(C)c5c4)CC3)CC2)cccc1-c1ccc(N2CCc3cccc(C(=O)Nc4nc5ccccc5s4)c3C2)nc1C(=O)O (some centres unmarked) [Compound 148b, 6-(8-(benzo[d]thiazol-2-ylcarbamoyl)-3,4-dihydroisoquinolin-2(1H)-yl)-3-(3-(((1r,4s)-4-(3-(4-(3-(2,6-dioxopiperidin-3-yl)-1-methyl-1H-indazol-6-yl)piperazin-1-yl)propyl)cyclohexyl)oxy)-2-methylphenyl)picolinic acid] |  | A (Ymin < 50%) |  | < 100 nM
Cc1c(Oc2ccc(CCCN3CCN(c4ccc5c(C6CCC(=O)NC6=O)nn(C)c5c4)CC3)cc2)cccc1-c1ccc(N2CCc3cccc(C(=O)Nc4nc5ccccc5s4)c3C2)nc1C(=O)O (centres unmarked) [Compound 149, 6-(8-(benzo[d]thiazol-2-ylcarbamoyl)-3,4-dihydroisoquinolin-2(1H)-yl)-3-(3-(4-(3-(4-(3-(2,6-dioxopiperidin-3-yl)-1-methyl-1H-indazol-6-yl)piperazin-1-yl)propyl)phenoxy)-2-methylphenyl)picolinic acid] | B (50% ≤ Ymin < 70%) | A (Ymin < 50%) | < 100 nM | < 100 nM
Cc1c(Oc2ccc(CCCN3CCN(c4cccc5c(C6CCC(=O)NC6=O)nn(C)c45)CC3)cc2)cccc1-c1ccc(N2CCc3cccc(C(=O)Nc4nc5ccccc5s4)c3C2)nc1C(=O)O (centres unmarked) [Compound 150, 6-[8-(1,3-benzothiazol-2-ylcarbamoyl)-3,4-dihydro-1H-isoquinolin-2-yl]-3-[3-[4-[3-[4-[3-(2,6-dioxo-3-piperidyl)-1-methyl-indazol-7-yl]piperazin-1-yl]propyl]phenoxy]-2-methyl-phenyl]pyridine-2-carboxylic acid] | B (50% ≤ Ymin < 70%) | B (50% ≤ Ymin < 70%) | 100 to 1000 nM | < 100 nM
Cc1c(OCCCN2CCN(CC(=O)N3CCN(c4cccc5c(C6CCC(=O)NC6=O)nn(C)c45)CC3)CC2)cccc1-c1ccc(N2CCc3cccc(C(=O)Nc4nc5ccccc5s4)c3C2)nc1C(=O)O (centres unmarked) [Compound 151, 6-(8-(Benzo[d]thiazol-2-ylcarbamoyl)-3,4-dihydroisoquinolin-2(1H)-yl)-3-(3-(3-(4-(2-(4-(3-(2,6-dioxopiperidin-3-yl)-1-methyl-1H-indazol-7-yl)piperazin-1-yl)-2-oxoethyl)piperazin-1-yl)propoxy)-2-methylphenyl)picolinic acid] | B (50% ≤ Ymin < 70%) | A (Ymin < 50%) | 100 to 1000 nM | < 100 nM

Source: US20240238423A9, “TETRAHYDROISOQUINOLINE HETEROBIFUNCTIONAL BCL-XL DEGRADERS” (Treeline Biosciences, Inc., priority 2022, published 2024)
